Assay results reported in PubChem BioAssay (NCI).
“And” between values parts separate entries of the source, which are not always exact repeats. Equal values may be shown once.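 Step 1: Grow cells in 96-well plates. Step 2: Expose to compound for 48 hours at 5 concentrations. Step 3: Interpolate endpoints linearly; if unreached, use highest concentration. The concentration for 50% growth inhibition is given as GI50. TGI: total growth inhibition.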

What was measured:
Assay in all cases: inhibition of tumour cell growth, NCI panel, 48 h
MALME-3M melanoma = test system: MALME-3M melanoma
NCI-H460 lung = test system: NCI-H460 lung
NCI-H522 lung = test system: NCI-H522 lung
NCI/ADR-RES ovarian = test system: NCI/ADR-RES ovarian
PC-3 prostate = test system: PC-3 prostate
RXF 393 renal = test system: RXF 393 renal
SF-268 CNS = test system: SF-268 CNS
SF-295 CNS = test system: SF-295 CNS
SK-MEL-2 melanoma = test system: SK-MEL-2 melanoma
SK-OV-3 ovarian = test system: SK-OV-3 ovarian

SMILES	GI50 (MALME-3M melanoma)	TGI (MALME-3M melanoma)	GI50 (NCI-H460 lung)	TGI (NCI-H460 lung)	GI50 (NCI-H522 lung)	TGI (NCI-H522 lung)	GI50 (NCI/ADR-RES ovarian)	TGI (NCI/ADR-RES ovarian)	GI50 (PC-3 prostate)	TGI (PC-3 prostate)	GI50 (RXF 393 renal)	TGI (RXF 393 renal)	GI50 (SF-268 CNS)	TGI (SF-268 CNS)	GI50 (SF-295 CNS)	TGI (SF-295 CNS)	GI50 (SK-MEL-2 melanoma)	TGI (SK-MEL-2 melanoma)	GI50 (SK-OV-3 ovarian)	TGI (SK-OV-3 ovarian)
CC[C@@H]1c2c(C#N)ncn2-c2cnc(Nc3ccc(C(=O)NC4CCN(C5CCN(CC6CC6)CC5)CC4)cc3OC)nc2N1C1CCCC1	85.3 nM	1850 nM	35.4 nM	1280 nM	23 nM	126 nM	1290 nM	2800 nM	43.8 nM	2080 nM	46.2 nM	1800 nM	64.2 nM	1770 nM	45.4 nM	1940 nM	40.7 nM	1820 nM	38.4 nM and 122 nM	1040 nM and 1640 nM
CN(CCO)CC[C@H](CSc1ccccc1)Nc1ccc(S(=O)(=O)NC(=O)c2ccc(N3CCC([C@@H](O)c4ccccc4-c4ccc(Cl)cc4)CC3)cc2)cc1S(=O)(=O)C(F)(F)F	2480 nM	8550 nM	4740 nM	19900 nM	4400 nM	> 72900 nM	> 100000 nM	> 100000 nM	2510 nM	9050 nM	311 nM	1540 nM	3920 nM	> 46000 nM	4230 nM	25300 nM	1410 nM	4280 nM	4980 nM	20700 nM
O.O.[NH-]C1(C(=O)O)CCCC1.[NH-]C1(C(=O)O)CCCC1.[Ni+2]	–	> 100000 nM	–	> 100000 nM	–	> 100000 nM	–	> 100000 nM	> 100000 nM	> 100000 nM	–	> 100000 nM	–	> 100000 nM	–	> 100000 nM	–	> 100000 nM	–	> 100000 nM
OC(Cc1ccncc1)C(Cl)(Cl)Cl (stereo not given)	> 100000 nM	> 100000 nM	> 100000 nM	> 100000 nM	> 100000 nM	> 100000 nM	> 100000 nM	> 100000 nM	21800 nM	> 100000 nM	> 100000 nM	> 100000 nM	> 100000 nM	> 100000 nM	7830 nM	> 100000 nM	> 100000 nM	> 100000 nM	> 100000 nM	> 100000 nM
O=C1C(Cl)=C(Nc2cccc(Cl)c2)C(=O)N1Cc1ccc(Cl)cc1	137 nM	2840 nM	538 nM	15700 nM	916 nM	8210 nM	298 nM	3280 nM	1320 nM	11900 nM	778 nM	22600 nM	1410 nM	19300 nM	532 nM	15600 nM	2200 nM	–	6340 nM	24600 nM
CCN(Cc1cc(Nc2nc(C)cn3c(-c4cn[nH]c4)cnc23)sn1)C(C)(C)CO	648 nM	16200 nM	44 nM	4590 nM	22.7 nM	2260 nM	1120 nM	> 44700 nM	21.9 nM	9660 nM	< 12 nM	90.7 nM	37.6 nM	1870 nM	46.8 nM	3360 nM	29.3 nM	7350 nM	24.1 nM	3380 nM
